Assay: Effect of modulating substances on active ingredient delivery in vitro
Assay type: physicochemical
Conditions: for effect of modulating substance on rate of active ingredient delivery: in the multilayer pharmaceutical form; for activity of modulating substance in purified water versus phosphate buffer pH 6,8: in-vitro, purified water vs phosphate buffer pH 6,8 (Pharm. Eur.)
Description: In the human and animal gastrointestinal tract the concentration of ions may vary to a certain extent and thus may influence the activity of the modulating substances. For reproducible in-vivo results substances having a modulating effect, which are not or only a little influenced by varying ionic strength are preferred.

Row | SMILES | effect of modulating substance on rate of active ingredient delivery | activity of modulating substance in purified water versus phosphate buffer pH 6,8
1 | O=C([O-])CC(O)(CC(=O)[O-])C(=O)[O-].[Na+].[Na+].[Na+] [Na citrate] | decrease the rate of active ingredient delivery | 
2 | CC(=O)[O-].[Na+] [Na acetate] | increase the rate of active ingredient delivery | 
3 | [Cl-].[Na+] [sodium chloride] | decrease the rate of active ingredient delivery | almost the same activity
4 | O=C(O)CC(O)(CC(=O)O)C(=O)O [citric acid] | increase the rate of active ingredient delivery | almost the same activity
5 | O=C([O-])CCC(=O)[O-].[Na+].[Na+] [sodium succinate] | increase the rate of active ingredient delivery | almost the same activity
